Data from article PMC12844744, “Complexed Linalool with Beta-Cyclodextrin Improve Antihypertensive Activity: Pharmacokinetic and Pharmacodynamic Insights” (Pharmaceuticals, 2025).
Read-outs that look alike come from different tables or passages of the source.

Experiments:
[1] = tested on: spontaneously hypertensive rats (SHR); assay: Chronic 60-day oral treatment: blood pressure and heart rate by tail-cuff plethysmography; assay type: in vivo, rat; conditions: 50 mg/kg/day p.o., 60 days, vs SHR vehicle
Method: (§1) Before starting any treatment, animals were conditioned for one week to minimize stress-related variability in BP and HR measurements. SHRs were randomly assigned to three experimental groups: Group 1 (SHR + Vehicle): Received saline solution (0.1 mL/100 g, p.o.); Group 2 (SHR + LIN): Treated with (-)-linalool (50 mg/kg/day, p.o.); and Group 3 (SHR + LIN/β-CD): Treated with the LIN/β-cyclodextrin inclusion complex (50 mg/kg/day, p.o.). An additional control group of normotensive Wistar rats (Group 4: Wistar + Vehicle) received saline under the same dosing protocol to serve as a baseline.
All treatments were administered orally once daily (between 08:00 and 12:00 h) for a period of 60 days, and cardiovascular assessments were performed with all groups in the afternoon (between 12:00 and 18:00 h), approximately 60 min post-administration. BP and heart rate were measured every five days throughout the treatment period using the tail-cuff plethysmography method (Insight® V2.11, São Paulo, Brazil). Systolic and diastolic blood pressures were measured in triplicate for each animal, and the average of these values was used for data analysis and graphical representation.

[2] = tested on: spontaneously hypertensive rats (SHR); assay: Acute intravenous effects on blood pressure and heart rate; assay type: in vivo, rat; conditions: i.v. 50 mg/kg, n = 5, mean ± S.E.M.
Text: This protocol aimed to evaluate the acute hemodynamic effects of LIN, administered intravenously (i.v.), on blood pressure (BP) and heart rate (HR) in spontaneously hypertensive rats (SHR) and normotensive Wistar rats. Animals were anesthetized with ketamine and xylazine (Cristália), and following trichotomy of the iliac region, polyethylene (PE) catheters were implanted into the femoral artery and vein.
The catheters consisted of PE-10 segments (internal/external diameter: 0.28/0.61 mm) connected to PE-50 catheter (internal/external diameter: 0.58/0.96 mm). To prevent catheter blockage during the hemodynamic recordings, the arterial and venous catheters were implanted pre-filled with a sterile saline–heparin solution (heparin: 100 UI). […]
Following a 24 h recovery period, baseline physiological parameters, including systolic BP (SBP), diastolic BP (DBP), and heart rate, were recorded. BP was continuously monitored via the arterial catheter connected to a pressure transducer (ADInstruments, São Paulo, Brazil). The signal was amplified and digitized at 1 kHz using a PowerLab 8/35 data acquisition system and analyzed with LabChart 8 Pro software (ADInstruments, São Paulo, Brazil). Once cardiovascular parameters stabilized, SBP, DBP, and HR were recorded as baseline control values. […]

[3] = Population PK model with covariates, oral administration data; assay type: in vivo, Wistar rats and SHR
Method: (§2) Population pharmacokinetic analysis was performed using Monolix® Suite 2019R1 software (Lixoft®, Antony, France). Structural models evaluated included 1- and 2-compartment models, first-order absorption, and linear elimination. Different error models were analyzed to explain the variability of the residual error, including a constant, proportional, and combined error model. […] The models were parameterized in V, ka, ke, and distribution constants (k1-2 and k2-1). The parameters were estimated with a stochastic approximation. The object function value (OFV), represented as −2 times the log-likelihood (−2LL) and Akaike Information Criterion (AIC), was used to compare the models.
(§3) The base model for i.v. and oral administration has been established. For oral linalool, after establishing the base model, new models adding the categorical covariates investigated in the study (complexed linalool administered in healthy rats and complexed linalool administered in SHRs) were developed. The visual analysis of the graphs and statistical tests (Pearson’s correlation and ANOVA) were carried out to verify if there is any relationship between the random effects of the parameters (h) and the covariables that could contribute to improving the model.
(§4) The graphs that correlate the plasma concentrations with the predicted individual or population plasma concentrations were evaluated by individual waste distribution charts (IWRES). Also, to evaluate whether simulations performed from the developed model are capable of reproducing the median and the variability of the observed data, a graph was generated to verify the predicted data visual predictive check (VPC).

[4] = tested on: spontaneously hypertensive rats (SHR); assay: Cardiac mass index after 60-day treatment; assay type: in vivo, rat; conditions: 50 mg/kg/day p.o., 60 days, vs SHR vehicle
Method: (§5) After 60 days of treatment period, Wistar and SHRs were euthanized in a carbon dioxide (CO2) chamber. Hearts were carefully excised, and surrounding adipose tissue and vascular structures were meticulously removed. Each heart was weighed using an analytical balance, and the cardiac mass index was calculated by normalizing the heart weight to the total body weight of the animal. A transverse cut was then made, and the left and right ventricles, and thoracic aortas. Both tissues were fixed in 4% formaldehyde for histological processing.

[5] = tested on: isolated superior mesenteric artery rings from SHRs; assay: Vascular reactivity of isolated superior mesenteric artery rings after 60-day treatment; assay type: in vivo, rat; conditions: mesenteric rings from SHR treated 50 mg/kg/day 60 days, mean ± S.E.M.
[6] = tested on: spontaneously hypertensive rats (SHR); assay: Histology of left ventricle and aorta (HE, Picrosirius Red) after 60-day treatment; assay type: in vivo, rat; conditions: 50 mg/kg/day p.o., 60 days
Method: as §5
The hearts and thoracic aortas were fixed in 4% buffered formaldehyde (0.1 M sodium phosphate buffer, pH 7.4), followed by washing in distilled water. Tissue dehydration was carried out in a graded ethanol series of increasing concentrations, ending with absolute ethanol. Samples were then cleared in xylene, embedded in paraffin, and sectioned using a microtome (RM2125RT, Leica®, Wetzlar, Germany) to obtain serial 5 μm sections. […]
Histological evaluation was conducted in a blinded manner. […] Parameters assessed included the presence or absence of inflammatory infiltrates, hemorrhagic areas, and structural alterations such as decreased cardiomyocyte volume, disruption of muscle fiber continuity, loss of transverse striations, sarcoplasmic granulation, contraction bands, and nuclear changes indicative of tissue injury. […]

[7] = tested on: spontaneously hypertensive rats (SHR); assay: Acute oral (orogastric) effects on blood pressure and heart rate over 6 h; assay type: in vivo, rat; conditions: oral 50 mg/kg, monitored 6 h, vs vehicle
[8] = parameters: method as in PMID 16596022; conditions: cited from earlier work
[9] = Plasma pharmacokinetics (non-compartmental analysis), healthy Wistar rats; assay type: in vivo; conditions: NCA, mean ± SD; for Fabs, Absolute bioavailability: 100 mg/kg; for AUC(0-inf): n = 6, read-out: AUC0−∞, Total Area Under the Curve; for MRT: n = 6, read-out: MRT, Mean Residence Time; for k el: n = 6, read-out: ke, elimination rate constant (converted); for half-life: n = 6, read-out: t1/2, half-life (converted)
Method: A bioanalytical methodology was developed and validated to quantify LIN in rat plasma using high-performance liquid chromatography with UV detection (HPLC/UV), according to RDC 27/2012 of the National Agency of Sanitary Vigilance, Brazil. Plasma aliquots (100 µL) were extracted with 300 µL of acetonitrile.
The samples were vortexed for 3 min and centrifuged at 13,000× g for 15 min, at 8 °C. The supernatant aliquots were injected into an HPLC instrument (PerkinElmer, Waltham, MA, USA), Flexar™ HPLC model), using reversed-phase column C18 (Nucleosil column 250 mm × 4.6 mm internal diameter, particle size 5 μm (Macherey—Nagel, Versmold, Germany) protected by a guard column with the same material (Hypersil BDS, 10 mm, particle size 5 μm (Thermo Scientific, Waltham, MA, USA) at a temperature of 50 ± 1 °C during the analysis.
The mobile phase was composed of water: acetonitrile (70:30, v/v), at a flow rate of 1 mL/min. LIN was detected at a wavelength of 210 nm, and the peak area was used for the quantitation of samples. The method was precise, sensitive and accurate within the concentration range of 5–100 ng/mL. All samples quantified were between the concentration range, the higher concentrations were diluted to reach the higher linear concentration.
Plasma pharmacokinetic parameters were estimated after administration of 50 mg/kg and 100 mg/kg, i.v. and orally, respectively, of LIN; 100 mg/kg orally of LIN/β-CD, in healthy Wistar rats; and 50 mg/kg of LIN/β-CD, in SHRs.
The animals received the drugs at the above doses through the caudal lateral vein or by oral gavage. Six animals were evaluated per group, as stated in the literature. After administration of the compounds, approximately 200 µL of blood samples were collected from the caudal lateral vein at 0.083, 0.25, 0.5, 1, 1.5, 2, 4, 6, and 8 h. Plasma was separated by centrifugation (6800× g at 8 ± 1 °C for 15 min) and stored at −20 °C until analysis. Non-compartmental analysis (NCA) of the individual concentration-time profiles was performed using Excel® 2016 software (Microsoft Corporation, Redmond, […], USA).
Calculated pharmacokinetic parameters included: the elimination rate constant (ke), absorption rate constant (ka), area under the concentration-time curve from 0 h to infinity (AUC0−∞), clearance (Cltot), half-life (t1/2), the volume of distribution (V), mean residence time (MRT), mean absorption time (MAT), absolute bioavailability (Fabs) and relative bioavailability (Frel). All the pharmacokinetic (PK) parameters were estimated individually aby analyzing the individual PK profiles. Results were expressed as the mean ± SD, and the PK parameters were compared by ANOVA followed by Student’s t-test (α = 0.05).

[10] = Population PK model, intravenous administration in healthy rats; assay type: in vivo, Wistar rats; conditions: i.v., 2-compartment model, linear elimination, combined error
Method: as §2, §3, §4

[11] = Body weight progression during 60-day treatment; assay type: in vivo, rat; conditions: 50 mg/kg/day p.o., 60 days
Method: as §1

[12] = 2-compartment model, first-order absorption, covariates Complex and Complex SHR in V and k12

V, volume of distribution (population estimate) [3, 12]: 15.28 L | k21, distribution microconstant (population estimate) [3, 12]: 0.0711 h⁻¹ | ka, absorption rate constant (population estimate) [3, 12]: 0.226 h⁻¹ | k el ([3]; Wistar and SHR, rat, plasma, 2-compartment model, first-order absorption, covariates Complex and Complex SHR in V and k12, read-out: ke, first-order rate elimination (population estimate) (converted)): 4.53e-05 s⁻¹ | V (typical population parameter, as given in text) ([3]; final model with covariates): 15.28 L/kg | Aortic histology ([6]; aorta): no signs of vascular remodeling | CL, clearance ([9]; oral 100 mg/kg, n = 6): 84.3 ± 37.8 mL/min/kg | MAT, Mean absorption time ([9]; oral 100 mg/kg, n = 6): 4.69 ± 1.50 h | Vd, Volume of Distribution ([9]; oral 100 mg/kg, n = 6): 16.29 ± 10.73 L/kg | ka, absorption rate constant ([9]; oral 100 mg/kg, n = 6): 0.23 ± 0.07 h⁻¹ | Fabs, Absolute bioavailability ([9]; oral 100 mg/kg, n = 6, listed as LIN Free): 0.003 ± 0.001% | Fabs, Absolute bioavailability ([9]; oral 100 mg/kg, n = 6, listed as free LIN): approximately 0.003% | AUC(0-inf) ([9]; rat, plasma, iv, i.v. 50 mg/kg): 25300 ± 18600 ng·h/mL | clearance ([9]; rat, plasma, iv, i.v. 50 mg/kg, n = 6, read-out: CL, clearance (converted)): 50.5 mL/min/kg | MRT ([9]; rat, plasma, iv, i.v. 50 mg/kg): 8.75 ± 4.78 h | Vd ([9]; rat, plasma, iv, i.v. 50 mg/kg, n = 6, read-out: Vd, Volume of Distribution): 25.2 ± 10.4 L/kg | k el ([9]; rat, plasma, iv, i.v. 50 mg/kg): 3.61e-05 s⁻¹ | half-life ([9]; rat, plasma, iv, i.v. 50 mg/kg): 6.6 ± 4.04 h | AUC(0-inf) ([9]; rat, plasma, oral 100 mg/kg): 40 ± 20 ng·h/mL | MRT ([9]; rat, plasma, oral 100 mg/kg): 1.97 ± 0.65 h | k el ([9]; rat, plasma, oral 100 mg/kg): 2.5e-05 s⁻¹ | half-life ([9]; rat, plasma, oral 100 mg/kg): 8.64 ± 4.44 h | Vd ([10]; Wistar, rat, plasma, iv, 50 mg/kg, read-out: V, volume of distribution (population estimate)): 22.4 L | k el ([10]; Wistar, rat, plasma, iv, 50 mg/kg, read-out: ke, first-order elimination rate (population estimate) (converted)): 0.000101 s⁻¹ | k12, distribution constant (population estimate) [10]: 0.461 h⁻¹ | k21, distribution constant (population estimate) [10]: 1.05 h⁻¹
Structure (SMILES): C=CC(C)(O)CCC=C(C)C (stereo not shown) [LIN, 3,7-dimethyl-1,6-octadien-3-ol]
Effect on arterial pressure, chronic treatment [1]: significantly reduced arterial pressure | %HR, percent change in heart rate relative to baseline [2]: −54.54 ± 4.84% | %MAP, percent change in mean arterial pressure relative to baseline [2]: −56.64 ± 5.05% | Cardiac mass index (heart weight / body weight) [4]: not observed | Emax of contractile response to phenylephrine ([5]; Phe 10^−10 to 10^−5 M, expressed as percentage of KCl 60 mM contraction, in %): 146.72 ± 12.34 | Emax of endothelium-independent relaxation to sodium nitroprusside ([5]; SNP 10^−13 to 10^−5 M, percentage of Phe-induced contraction, in %): −121.04 ± 10.45 | Emax of endothelium-dependent vasorelaxation to acetylcholine ([5]; in % (unit assumed)): −70.52 ± 6.80 | Myocardial histology (hematoxylin-eosin) ([6]; left ventricle): preserved myocardial morphology | Effect on blood pressure after oral administration [7]: failed to produce any significant antihypertensive effect | LogP [8]: ~ 3.3 | Body weight progression [11]: no significant changes
